Values of other authors in US20060193787A1, “Nanoparticle-based drug delivery system” (priority 2005, published 2006).

Conditions: oral delivery

Bioavailability: less than 1%
SMILES: CC(=O)O[C@H]1C(=O)[C@@]2(C)[C@H]([C@H](OC(=O)c3ccccc3)[C@]3(O)C[C@H](OC(=O)[C@H](O)[C@@H](NC(=O)c4ccccc4)c4ccccc4)C(C)=C1C3(C)C)[C@]1(OC(C)=O)CO[C@@H]1C[C@@H]2O [paclitaxel]
